Values quoted from earlier work in US9737548B2, “Pharmaceutical formulations and uses thereof in the treatment of female sexual dysfunction” (EB IP LYBRIDO B.V., priority 2005, dated 2017).

Key:
[1] = serum concentration
[2] = short-lasting peak formulation

COc1cc2nc(N3CCN(C(=O)c4ccco4)CC3)nc(N)c2cc1OC [prazosin]
Tmax [1]: 1 to 2 h

C[C@]12CC[C@H]3[C@@H](CCC4=CC(=O)CC[C@@]43C)[C@@H]1CC[C@@H]2O [testosterone, 17-β-hydroxyandrost-4-en-3-one]
time after administration at which peak serum level of testosterone is obtained [2]: 1 to 20 min | time after which testosterone serum level is back to the level before administration [2]: approximately 120 minutes
